Tests used:
Format in all cases: cell-based
[1] = test system: SW480 colon carcinoma cells; assay: MTS cell proliferation assay, Table 5; details: Homo sapiens; SW480, 10 μM, 72 h; relative to DMSO control; read-out: Cell proliferation (%) for test compounds
Experimental: For the experiment giving the results shown in Table 5, cells (3000 per well) were seeded on 96 well plates (eight replicates per treatment). After 24 hours, and daily thereafter, cell culture medium (including 10% FBS) was mixed with 10 μM compounds or with 0.1% DMSO vehicle and then added to the wells. Sixteen wells of seeded control cells, defining incubation time zero (t0=24 hour after cell seeding), were incubated with 20 μl substrate in 100 μl phenol free D-MEM (Invitrogen) for 2 hours, as described in the CellTiter 96® AQueous Non-Radioactive Cell Proliferation Assay protocol (Promega). The A490 was recorded. The treatment samples were likewise measured after 72 hours.
(§1) The quantity of reduced MTS product (as measured by the absorbance at 490 nm) is directly proportional to the number of living cells in the culture and thus allows a direct comparison of cell proliferation in each case. DMSO was used as a control. The following formula was used to determine single well relative A490 sample values: ((Sample A490−Average A490t0)*100)/(Average A490t720.1% DMSO control−Average A490t0)
The proliferation of SW480 cells (in percent) is the A492 value relative to that of the DMSO control.

[2] = test system: canonical Wnt signaling; assay: ST-Luc (SuperTOPFlash) Luciferase assay in HEK293 cells, 30% Wnt3a-CM; details: Homo sapiens, HEK293; 10 μM compound, 30% Wnt3a-CM, 24 h; relative to DMSO control
Experimental: Inhibition of Wnt signaling by compound No. 1 was quantified in vitro using a Luciferase assay in HEK293 cells transiently transfected with SuperTOPFlash plasmid (ST-Luc) (Veeman M T et al., Curr. Biol. 13: 680-685, 2003) at concentrations from 0.1-10 μM. HEK293 cells were purchased from ATCC (American Type Culture Collection) and maintained according to suppliers recommendations.
Transfection was performed using 80000 HEK293 cells seeded in 48-well plates coated with poly-L lysine. After 24 hours, 0.25 μg total plasmid DNA (0.23 μg SuperTOPFlash+0.02 μg pRL-TK (Renilla)—Promega) and 0.75 μl FuGENE6 (Roche) was combined in a total volume in 25 μl Opti-MEM® (Invitrogen) as described by the manufacturer (Roche). The transfection mixture was added to the plated cells and media were changed after 24 hours.
The Luciferase assay was performed by incubating transfected cells for 24 hours with various concentrations of compound No. 1 in 30% Wnt3a-CM (Wnt3a containing conditioned medium from L Wnt3a cells was harvested as described by ATCC). All treated reporter cells were finally lysed and the firefly luciferase and Renilla activities were measured on a 20/20n Luminometer (Turner BioSystems) as described in the Dual-Glo™ Luciferase Assay System Technical Manual (Promega).
HEK293 cells were transfected, grown and assayed as described in Example 22. 24 hours after seeding, the cells were incubated for an additional 24 hours with 10 μM concentrations of compounds in 30% Wnt3a-CM.
The percent activities shown in Table 3 are calculated relative to DMSO as a control. Some values shown are averages of multiple measurements. Compound XAV939 (Novartis; Huang et al., Nature (2009), 461, pp. 614-20) which is used as a positive control, has an activity of 7%.

[3] = test system: control cell lines; assay: MTS cell proliferation assay, Table 6, mean; details: HeLa, HCT116, LS174T; 10 μM, 72 h
From the text: (§2) Control cell lines used were HeLa cells (cell growth not controlled by canonical Wnt signalling) and colorectal cancer cell lines LS174T and HCT116 (with mutant β-catenin N-terminal phosphorylation sites). Target cell lines used were colorectal cancer cell lines WiDr, LoVo, HCT-8, HCT-15, COL0205, DLD-1, HT-29, SW620, SW1463, SW480 which all carry a mutant APC gene. Target cells, along with L Wnt3a-expressing cells and HEK293 cells, were purchased from ATCC (American Type Culture Collection) and maintained according to the supplier's recommendations. Wnt3a containing conditioned media (Wnt3a-CM) from L Wnt3a expressing cells was harvested as described by ATCC.
(§3) For the experiment giving the results shown in Table 6, cells were exposed to cell culture medium (including 10% FBS) containing 10 μM of the compound to be tested 24 hours after seeding (3000 cells on 96-well plates). Medium was changed daily. After 72 hours, an MTS assay (CellTiter 96® AQueous Non-Radioactive Cell Proliferation Assay—Promega) was carried out according to the standard procedure. 0.1% DMSO was used as a control.
as §1
(§4) Data shown are A490-percentage values relative to the DMSO control, calculated as described above, and represent averages from 2 to 4 independent experiments (except SW1463 cells treated with IWR-1 which reports only a single experiment). Compounds IWR-1 and XAV939 are known Wnt pathway inhibitors.

[4] = test system: APC mutant cell lines; assay: MTS cell proliferation assay, Table 6, mean; details: 10 μM, 72 h; for Ratio of means: APC mutant cell lines versus control cell lines; for Mean proliferation (APC mutant cell lines): ten APC mutant colorectal lines
From the text: as §2, §3, §1, §4

[5] = test system: DLD-1; assay: MTS cell proliferation assay, Table 6; details: 10 μM, 72 h, relative to DMSO control
From the text: as §2, §3, §1, §4

[6] = test system: LoVo; assay: MTS cell proliferation assay, Table 6; details: 10 μM, 72 h, relative to DMSO control
From the text: as §2, §3, §1, §4

[7] = test system: WiDr; assay: MTS cell proliferation assay, Table 6; details: 10 μM, 72 h, relative to DMSO control
From the text: as §2, §3, §1, §4

[8] = test system: SW1463; assay: MTS cell proliferation assay, Table 6; details: 10 μM, 72 h, relative to DMSO control
From the text: as §2, §3, §1, §4

[9] = test system: HCT116; assay: MTS cell proliferation assay, Table 6; details: HCT116 (control); 10 μM, 72 h; relative to DMSO control
From the text: as §2, §3, §1, §4

[10] = test system: HT-29; assay: MTS cell proliferation assay, Table 6; details: 10 μM, 72 h, relative to DMSO control
From the text: as §2, §3, §1, §4

[11] = test system: LS174T; assay: MTS cell proliferation assay, Table 6; details: LS174T (control); 10 μM, 72 h; relative to DMSO control
From the text: as §2, §3, §1, §4

[12] = test system: SW480; assay: MTS cell proliferation assay, Table 6; details: 10 μM, 72 h, relative to DMSO control
From the text: as §2, §3, §1, §4

[13] = test system: COLO205; assay: MTS cell proliferation assay, Table 6; details: 10 μM, 72 h, relative to DMSO control
From the text: as §2, §3, §1, §4

[14] = test system: HCT-15; assay: MTS cell proliferation assay, Table 6; details: 10 μM, 72 h, relative to DMSO control
From the text: as §2, §3, §1, §4

[15] = test system: HeLa cells; assay: MTS cell proliferation assay, Table 6; details: HeLa (control); 10 μM, 72 h; relative to DMSO control
From the text: as §2, §3, §1, §4

[16] = test system: SW620; assay: MTS cell proliferation assay, Table 6; details: 10 μM, 72 h, relative to DMSO control
From the text: as §2, §3, §1, §4

[17] = test system: HCT-8; assay: MTS cell proliferation assay, Table 6; details: 10 μM, 72 h, relative to DMSO control
From the text: as §2, §3, §1, §4

[18] = test system: canonical Wnt signaling; assay: IC50 in STF/REN HEK293 cells, 50% Wnt3a-CM; details: Homo sapiens; STF/REN HEK293, 50% Wnt3a-CM, 24 h
Experimental: IC50 values were calculated using STF/REN HEK293 cells prepared essentially according to Example 22. Briefly, HEK293 cells (80,000 cells per well) were seeded in 48-well plates coated with poly-L lysine. 24 hours after seeding, the cells were incubated for an additional 24 hours with various compound concentrations in 50% Wnt3a-CM. After compound exposure, the cells were lysed and the firefly luciferase and Renilla activities were measured on a 20/20n Luminometer (Turner BioSystems) as described in the Dual-Glo™ Luciferase Assay System Technical Manual (Promega).
(§5) XLfit (idbs) was used to determine the IC50 and GI50 values in inhibition experiments. The data were fit to the following formulae:
IC50: Langmuir Binding Isotherm: fit=((A+(B*x))+(((C−B)*(1−exp((−1*D)*x)))/D)) res=(y−fit)

[19] = test system: SW480 cells; assay: Growth inhibition (GI50) MTS assay; details: Homo sapiens, 72 h
Experimental: Growth inhibition curves were prepared using SW480 cells, prepared essentially according to Example 23. SW480 cells (3000 cells per well) were seeded on 96 well plates (eight replicates per treatment). 24 hours later and daily thereafter, cell culture media (including 10% FBS) was mixed with various compound concentrations or with 0.1% DMSO vehicle and then added to the wells. Sixteen wells of seeded control cells, defining incubation time zero (to =24 hour after cell seeding), were incubated with […] substrate in 100 μl of phenol-free D-MEM (Invitrogen) for 2 hours, as described in the CellTiter 96® AQueous Non-Radioactive Cell Proliferation Assay protocol (MTS, Promega). The A490 was recorded. The treatment samples were likewise measured after 72 hours. The following formula was used to determine the single well relative A490 sample values: ((Sample A490−Average A490t0)*100)/(Average A490t720.1% DMSO control−Average A490t0)
as §5
GI50: Eadie-Hofstee Model: fit=(A+((B*x)/((C*(D+1))+x))) inv=(((y−A)*(C*(D+1)))/((A+B)−y)) res=(y−fit)

SMILES: Cc1ccc(-c2nnc(CSc3nnc(-c4ccncc4)n3-c3ccccc3Cl)o2)cc1 [compound 60]
- activity at 10 µM [1]: 49%
- activity at 10 µM [2]: 17.3%
- Mean proliferation (control cell lines) [3]: 95%
- Ratio of means [4]: 0.58
- Mean proliferation (APC mutant cell lines) [4]: 55%
- Cell proliferation (%) [5]: 78%
- Cell proliferation (%) [6]: 67%
- Cell proliferation (%) [7]: 70%
- Cell proliferation (%) [8]: 12%
- Cell proliferation (%) [9]: 87%
- Cell proliferation (%) [10]: 58%
- Cell proliferation (%) [11]: 105%
- Cell proliferation (%) [12]: 59%
- Cell proliferation (%) [13]: 53%
- Cell proliferation (%) [14]: 54%
- Cell proliferation (%) [15]: 92%
- Cell proliferation (%) [16]: 50%
- Cell proliferation (%) [17]: 51%
- IC50 [18]: < 0.1 µM

SMILES: COc1ccc(-n2c(SCC(C)(C)c3nc(-c4ccc(C)cc4)no3)nnc2-c2ccncc2)cc1 [Compound 18]
- activity at 10 µM [2]: 32.3%
- GI50 [19]: > 25 µM
- IC50 [18]: 5.9 µM

SMILES: COc1ccc(-n2c(SCc3nnc(-c4ccccc4)o3)nnc2-c2ccncc2)cc1 [Compound 11]
- activity at 10 µM [2]: 9.3%
- GI50 [19]: > 25 µM
- IC50 [18]: 1.5 µM

SMILES: O=C(Nc1cccc2cccnc12)c1ccc(N2C(=O)[C@@H]3[C@H](C2=O)[C@@H]2C=C[C@H]3C2)cc1 [IWR-1, reference compound]
- Mean proliferation (control cell lines) [3]: 74%
- Ratio of means [4]: 0.83
- Mean proliferation (APC mutant cell lines) [4]: 62%
- Cell proliferation (%) [5]: 97%
- Cell proliferation (%) [6]: 73%
- Cell proliferation (%) [7]: 61%
- Cell proliferation (%) [8]: 57%
- Cell proliferation (%) [9]: 83%
- Cell proliferation (%) [10]: 33%
- Cell proliferation (%) [11]: 63%
- Cell proliferation (%) [12]: 62%
- Cell proliferation (%) [13]: 55%
- Cell proliferation (%) [14]: 64%
- Cell proliferation (%) [15]: 77%
- Cell proliferation (%) [16]: 48%
- Cell proliferation (%) [17]: 70%

SMILES: Cc1ccc(-c2noc(CSc3nnc(-c4ccncc4)n3-c3ccccc3F)n2)cc1 [Compound 42]
- activity at 10 µM [2]: 14.6%
- GI50 [19]: 8 µM
- IC50 [18]: 0.4 µM

SMILES: Cc1ccccc1-n1c(SCc2nc(-c3ccc(Cl)cc3)no2)nnc1-c1ccncc1 [Compound 41]
- activity at 10 µM [2]: 9.4%
- GI50 [19]: < 5 µM
- IC50 [18]: 0.47 µM

SMILES: Cc1ccc(-c2noc(CSc3nnc(-c4ccnc(O)c4)n3-c3ccccc3C)n2)cc1 [Compound 46]
- activity at 10 µM [2]: 13.3%
- GI50 [19]: 9 µM
- IC50 [18]: 0.7 µM

SMILES: Cc1ccc(-c2noc(CSc3nnc(-c4ccncc4)n3-c3cccc(Cl)c3C)n2)cc1 [Compound 10]
- activity at 10 µM [2]: 10.1%
- GI50 [19]: 13.5 µM
- IC50 [18]: 3.3 µM

Source: US8883827B2, “Azole derivatives as WTN pathway inhibitors” (Oslo University Hospital HF, priority 2009, dated 2014)
